Test system: Enterococcus faecalis
Assay: Antimicrobial activity against Enterococcus faecalis 12964

CC(=CCn1c[n+](C)c2ncnc(N)c21)CC[C@@]1(C)[C@H](C)CC[C@@]2(C)C(C)=CCC[C@H]12 [AGELASINE B]
IC50: 13.7 µM

Source: BindingDB's records for doi:10.1021/np980173q (Kagoshima University, 1998)
